Laboratory results published in PubChem BioAssay AID1963856 (Molecular Pharmacology Branch, DTP, NCI, 2024).

System: LG0567-F671-PDC KRAS tumor spheroid viability
Assay: Anticancer human tumor LG0567-F671-PDC patient-derived lung adenocarcinoma cell line growth inhibition [KRAS2]
Settings: spheroids with HUVEC and MSC; for viability, T/C: stronger effect = lower value
Outline: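 KRAS-mutant tumor cells were grown as spheroids with HUVEC endothelial cells and human MSCs as stroma. Targeted agents were tested alone and with KRAS pathway inhibitors. Doses started at or near clinical Cmax, or 10 microM, descending half-log.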

[1] = curve of first compound, second compound 0.1 µM
[2] = curve of first compound, second compound 0.316 µM
[3] = curve of first compound, second compound 3.16 µM
[4] = curve of first compound, second compound 10 µM
[5] = second compound 0.1 µM, first compound 0.01 µM
[6] = second compound 0.1 µM, first compound 0.0316 µM
[7] = second compound 0.1 µM, first compound 0.1 µM
[8] = second compound 0.1 µM, first compound 0.316 µM
[9] = second compound 0.1 µM, first compound 1 µM
[10] = second compound 0.1 µM, first compound 3.16 µM
[11] = second compound 0.316 µM, first compound 0.01 µM
[12] = second compound 0.316 µM, first compound 0.0316 µM
[13] = second compound 0.316 µM, first compound 0.1 µM
[14] = second compound 0.316 µM, first compound 0.316 µM
[15] = second compound 0.316 µM, first compound 1 µM
[16] = second compound 0.316 µM, first compound 3.16 µM
[17] = second compound 3.16 µM, first compound 0.01 µM
[18] = second compound 3.16 µM, first compound 0.0316 µM
[19] = second compound 3.16 µM, first compound 0.1 µM
[20] = second compound 3.16 µM, first compound 0.316 µM
[21] = second compound 3.16 µM, first compound 1 µM
[22] = second compound 3.16 µM, first compound 3.16 µM
[23] = second compound 10 µM, first compound 0.01 µM
[24] = second compound 10 µM, first compound 0.0316 µM
[25] = second compound 10 µM, first compound 0.1 µM
[26] = second compound 10 µM, first compound 0.316 µM
[27] = second compound 10 µM, first compound 1 µM
[28] = second compound 10 µM, first compound 3.16 µM
[29] = curve of first compound, second compound 1 µM
[30] = second compound 1 µM, first compound 0.01 µM
[31] = second compound 1 µM, first compound 0.0316 µM
[32] = second compound 1 µM, first compound 0.1 µM
[33] = second compound 1 µM, first compound 0.316 µM
[34] = second compound 1 µM, first compound 1 µM
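Note: drug exposure lasted seven days after spheroids formed for three days.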
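Throughout, for viability, T/C: 100% = DMSO vehicle control viability.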

| Structure (SMILES) | IC50 [1] [nM] | IC50 [2] [nM] | IC50 [3] [nM] | IC50 [4] [nM] | viability, T/C [5] [%] | viability, T/C [6] [%] | viability, T/C [7] [%] | viability, T/C [8] [%] | viability, T/C [9] [%] | viability, T/C [10] [%] | viability, T/C [11] [%] | viability, T/C [12] [%] | viability, T/C [13] [%] | viability, T/C [14] [%] | viability, T/C [15] [%] | viability, T/C [17] [%] | viability, T/C [18] [%] | viability, T/C [19] [%] | viability, T/C [20] [%] | viability, T/C [21] [%] | other results |
| --- | --- | --- | --- | --- | --- | --- | --- | --- | --- | --- | --- | --- | --- | --- | --- | --- | --- | --- | --- | --- | --- |
| CC(=O)OC12COC1CC(O)C1(C)C(=O)C(O)C3=C(C)C(OC(=O)C(O)C(NC(=O)OC(C)(C)C)c4ccccc4)CC(O)(C(OC(=O)c4ccccc4)C21)C3(C)C (stereo not given) + CC1OCC2(CCN(c3cnc(Sc4ccnc(N)c4Cl)c(N)n3)CC2)C1N | < 10 | < 10 | < 10 | < 10 | 41.6 | 39.4 | 38.7 | 40.4 | 48 | 38.6 | 26.7 | 26.7 | 24.9 | 22.1 | 28.1 | 14.7 | 12.3 | 10.3 | 10.6 | 11.9 | viability, T/C [16]: 20.6%; viability, T/C [22]: 10.3%; viability, T/C [23]: 14.9%; viability, T/C [24]: 9.36%; viability, T/C [25]: 11.2%; viability, T/C [26]: 9.93%; viability, T/C [27]: 12.9%; viability, T/C [28]: 9.85% |
| Cn1nccc1Nc1nccc(-c2cc3c(s2)C(C)(C)N(CCN2CCOCC2)C3=O)n1 |  |  |  |  |  |  |  |  |  |  |  |  |  |  |  |  |  |  |  |  | viability, T/C (compound 0.0316 µM): 95.8% [middle of 5 runs]; viability, T/C (compound 0.1 µM): 89.5% [middle of 5 runs]; viability, T/C (compound 0.316 µM): 74.6% [middle of 5 runs]; viability, T/C (compound 1 µM): 53.3% [middle of 5 runs]; viability, T/C (compound 3.16 µM): 37.5% [middle of 4 runs]; viability, T/C (compound 10 µM): 30.1% [middle of 5 runs]; IC50 (curve of compound): 1.25 µM [middle of 5 runs] |
| CC1COCCN1c1cc(-c2ccnn2C)c2ccnc(-c3ccn[nH]3)c2n1 (stereo not given) + COc1cc2nc(C)nc(NC(C)c3cc(N)cc(C(F)(F)F)c3)c2cc1OC1CCOC1 | 219 | 79.1 | 14.4 | 46.1 | 91.9 | 60.8 | 50.1 | 56.2 | 41.2 | 15.7 | 84 | 70.7 | 46.7 | 23.8 | 15.3 | 55.5 | 37.9 | 21.8 | 10.1 | 4.98 | IC50 [29]: 67.7 nM; viability, T/C [16]: 36.7%; viability, T/C [30]: 79.3%; viability, T/C [31]: 59.6%; viability, T/C [32]: 44.2%; viability, T/C [33]: 36.2%; viability, T/C [34]: 16.9%; viability, T/C (second compound 1 µM, first compound 3.16 µM): 18.4%; viability, T/C [22]: 24.5%; viability, T/C [23]: 53.2%; viability, T/C [24]: 54.3%; viability, T/C [25]: 43.6%; viability, T/C [26]: 29.6%; viability, T/C [27]: 32.2%; viability, T/C [28]: 22.1% |
| CCN1CCN(Cc2ccc(Nc3ncc(F)c(-c4cc(F)c5nc(C)n(C(C)C)c5c4)n3)nc2)CC1 + C=CC(=O)N1CCN(c2nc(OCC3CCCN3C)nc3c2CCN(c2cccc4cccc(C)c24)C3)CC1CC#N | < 3.16 | < 3.16 | < 3.16 |  | 24.7 | 18.6 | 20 | 22.1 | 25.3 |  | 25.3 | 16.7 | 22.5 | 23.7 | 27.7 | 30.7 | 25.6 | 29 | 31.4 | 29.4 | IC50 (curve of first compound, second compound 0.0316 µM): < 3.16 nM; IC50 [29]: < 3.16 nM; viability, T/C (second compound 0.0316 µM, first compound 0.00316 µM): 36.1%; viability, T/C (second compound 0.0316 µM, first compound 0.01 µM): 32.4%; viability, T/C (second compound 0.0316 µM, first compound 0.0316 µM): 22.2%; viability, T/C (second compound 0.0316 µM, first compound 0.1 µM): 26.6%; viability, T/C (second compound 0.0316 µM, first compound 0.316 µM): 27.6%; viability, T/C (second compound 0.0316 µM, first compound 1 µM): 31.4%; viability, T/C (second compound 0.1 µM, first compound 0.00316 µM): 32.8%; viability, T/C (second compound 0.316 µM, first compound 0.00316 µM): 23.9%; viability, T/C (second compound 1 µM, first compound 0.00316 µM): 27.7%; viability, T/C [30]: 20.6%; viability, T/C [31]: 22.1%; viability, T/C [32]: 21.8%; viability, T/C [33]: 26%; viability, T/C [34]: 33.5%; viability, T/C (second compound 3.16 µM, first compound 0.00316 µM): 28% |
